Data as given in article PMC7076013 (Scientific Reports, 2020).

What follows are substances tested on B16F10, mouse metastatic melanoma (assay: CV (crystal violet) cell viability, B16F10). Conditions: 48 h.
Format: cell-based
Procedure: (§1) Both melanoma and colon cancer are tumor types tightly connected with inflammation, while the expression of COX-2 in the selected cell lines was highly variable. Since a lot of discrepancies were found in the literature concerning the expression of this enzyme[5],[48]–[53], both COX-1 and COX-2 expression was analyzed by Western blot. […] The cells were treated with a wide range of doses of 4a–c, 5, and 6 for 48 h and cell viability was determined by MTT (3-(4,5-dimethylthiazol-2-yl)-2,5-diphenyltetrazolium bromide) and CV (crystal violet) assays. The obtained IC50 values were similar for both assays (Table 1).
(§2) Reagents were obtained from Sigma (St. Louis, MO) unless indicated otherwise. Annexin V - FITC (AnnV) was acquired from Biotium (Hayward, CA) and Apostat from R&D (R&D S ystems, Minneapolis, MN USA). […] After being detached b y tr ypsinization, cells were seeded in defined number as follows: 2.5 × 10^3 cells/well in 96-well plates for viability assessment and 2 × 10^4 cells/well in 24-well plates for flow cytometry. Peritoneal resident […]
(§3) for Biolo gical Research “Siniša Stanković” b y peritoneal lav age with an ice- cold phosphate buffer solution (PBS). The handling of animals and protocol for obtaining cells is in agreement with the rules of the European Union and approved by the Institutional Animal Care and Use Committee at IBISS (02- 09/1 6). Cells were counted and seeded in 96-well plates and incubat ed overnight. Before treatment, non- adherent cells were removed. Compounds 4a- c, 5 and 6 were dissolved in DMSO and stored at −20 °C for a m onth. Working solutions were freshl y prepared in 10% FCS-RPMI-1640. Controls were treated with culture medium containing the equivalent […]
(§4) 3.2. Cell viability tests.
(§5) The number of viable cel ls in culture was estimated by the MTT (3-(4,5- dimethylthiazol- 2-yl ) - 2,5- diphenyltetrazolium bromide) and CV (crystal violet) tests. Cells were incubated in the presence of compounds 4a- c, 5 and 6 for 48 h, then the viability was measured as described.4 […]
(§6) The results were ex pressed as a p er centage of a v alue obtained for the untr eated control cells that was arbitrarily set to be 100%. A non- linear regression analysis of obtained results was done b y using Gr aphPad Prism software to calculat e IC50 values. […]

Substance | IC50 [µM]
4-[4-(hydroxymethyl)phenyl]-3-(1,2-dicarba-closo-dodecaboranyl)furan-2(5H)-one [Compound 4c] | 26.5 ± 2.62
4-[4-(methylnitrooxy)phenyl]-3-(1,2-dicarba-closo-dodecaboranyl)furan-2(5 H)-one [Compound 5] | 7.65 ± 0.26

Same assay, conditions: IC50 macrophages / IC50 cancer

Substance | Selectivity index B16F10
4-[4-(hydroxymethyl)phenyl]-3-(1,2-dicarba-closo-dodecaboranyl)furan-2(5H)-one [Compound 4c] | 2.5
4-[4-(methylnitrooxy)phenyl]-3-(1,2-dicarba-closo-dodecaboranyl)furan-2(5 H)-one [Compound 5] | 4.8

The substances below were run on HCT116, human colon carcinoma (assay: MTT cell viability, HCT116). Conditions: 48 h.
Format: cell-based
Procedure: as §1
as §2, with “cytometry.” for “cytometry. Peritoneal resident”
(§7) Committee at IBISS (02- 09/1 6). Cells were counted and seeded in 96-well plates and incubat ed overnight. Before treatment, non- adherent cells were removed. Compounds 4a- c, 5 and 6 were dissolved in DMSO and stored at −20 °C for a m onth. Working solutions were freshl y prepared in 10% FCS-RPMI-1640. Controls were treated with culture medium containing the equivalent […]
as §4, §5, §6

Substance | IC50 [µM]
4-[4-(hydroxymethyl)phenyl]-3-(1,2-dicarba-closo-dodecaboranyl)furan-2(5H)-one [Compound 4c] | 22.2 ± 0.95
4-[4-(methylnitrooxy)phenyl]-3-(1,2-dicarba-closo-dodecaboranyl)furan-2(5 H)-one [Compound 5] | 8.9

What follows are substances tested on B16, mouse solid melanoma (assay: MTT cell viability, B16). Conditions: 48 h.
Format: cell-based
Procedure: as §1
as §2, with “cytometry.” for “cytometry. Peritoneal resident”
as §7, §4, §5, §6

Substance | IC50 [µM]
4-[4-(hydroxymethyl)phenyl]-3-(1,2-dicarba-closo-dodecaboranyl)furan-2(5H)-one [Compound 4c] | 26.1 ± 2.49
4-[4-(methylnitrooxy)phenyl]-3-(1,2-dicarba-closo-dodecaboranyl)furan-2(5 H)-one [Compound 5] | 10.1 ± 0.4

What follows are substances tested on CT26CL25, mouse colon carcinoma (assay: CV (crystal violet) cell viability, CT26CL25). Conditions: 48 h.
Format: cell-based
Procedure: as §1, §2, §3, §4, §5, §6

Substance | IC50 [µM]
4-[4-(hydroxymethyl)phenyl]-3-(1,2-dicarba-closo-dodecaboranyl)furan-2(5H)-one [Compound 4c] | 29.2 ± 2.86
4-[4-(methylnitrooxy)phenyl]-3-(1,2-dicarba-closo-dodecaboranyl)furan-2(5 H)-one [Compound 5] | 29.4 ± 2.12

Same assay, conditions: IC50 macrophages / IC50 cancer

Substance | Selectivity index CT26CL25
4-[4-(hydroxymethyl)phenyl]-3-(1,2-dicarba-closo-dodecaboranyl)furan-2(5H)-one [Compound 4c] | 2.3
4-[4-(methylnitrooxy)phenyl]-3-(1,2-dicarba-closo-dodecaboranyl)furan-2(5 H)-one [Compound 5] | 1.3

The substances below were run on peritoneal resident macrophages (assay: CV cytotoxicity for isolated macrophages). Conditions: crystal violet (CV) test.
Format: cell-based, C57BL/6 mice
Procedure: as §2, §3, §4, §5, §6
14 Ligand molecules and one […]
protocol published earlier.16
Cell line Selectivity index

Substance | IC50 [µM]
4-[4-(hydroxymethyl)phenyl]-3-(1,2-dicarba-closo-dodecaboranyl)furan-2(5H)-one [Compound 4c] | 66.2 ± 1.91
4-[4-(methylnitrooxy)phenyl]-3-(1,2-dicarba-closo-dodecaboranyl)furan-2(5 H)-one [Compound 5] | 37.1 ± 1.73

The substances below were run on B16F10, mouse metastatic melanoma (assay: MTT cell viability, B16F10). Conditions: 48 h.
Format: cell-based
Procedure: as §1
as §2, with “cytometry.” for “cytometry. Peritoneal resident”
as §7, §4, §5, §6

Substance | IC50 [µM]
4-[4-(hydroxymethyl)phenyl]-3-(1,2-dicarba-closo-dodecaboranyl)furan-2(5H)-one [Compound 4c] | 28 ± 2.62
4-[4-(methylnitrooxy)phenyl]-3-(1,2-dicarba-closo-dodecaboranyl)furan-2(5 H)-one [Compound 5] | 7.95 ± 3.06

The substances below were run against T1, human recombinant COX-2 (Homo sapiens, UniProt P35354) (assay: COX Fluorescent Inhibitor Screening Assay, COX-2). Conditions: human recombinant COX-2, Cayman kit 700100.
T1 construct: purchased Cayman Chemical Item No. 700100 (assay kit)
T1 sequence (P35354 18-604): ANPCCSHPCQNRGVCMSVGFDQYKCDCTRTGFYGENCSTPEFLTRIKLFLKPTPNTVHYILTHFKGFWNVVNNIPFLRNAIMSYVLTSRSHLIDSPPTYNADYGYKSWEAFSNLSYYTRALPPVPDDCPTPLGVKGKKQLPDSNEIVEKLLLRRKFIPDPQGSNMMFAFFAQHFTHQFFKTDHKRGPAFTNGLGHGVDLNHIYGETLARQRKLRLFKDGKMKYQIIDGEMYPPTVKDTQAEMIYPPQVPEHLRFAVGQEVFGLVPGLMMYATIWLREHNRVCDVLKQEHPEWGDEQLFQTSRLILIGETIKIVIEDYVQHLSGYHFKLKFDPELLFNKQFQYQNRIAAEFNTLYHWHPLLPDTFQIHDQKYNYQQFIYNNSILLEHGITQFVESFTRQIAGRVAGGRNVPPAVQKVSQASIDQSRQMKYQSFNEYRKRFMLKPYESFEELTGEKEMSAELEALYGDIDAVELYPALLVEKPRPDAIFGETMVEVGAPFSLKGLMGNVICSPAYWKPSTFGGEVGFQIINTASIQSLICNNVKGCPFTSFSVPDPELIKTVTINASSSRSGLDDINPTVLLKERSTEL
Format: biochemical
Procedure: The synthesized compounds were tested in vitro for their potential to inhibit ovine COX-1 and human recombinant COX-2.
*All compounds were measured with the Cytation 5 plate reader and the "COX Fluorescent Inhibitor […]
chemi cals, USA) " according to the manufacturer's
Error bars indicate standard error mean (SEM) obtained from two measurements at each concentration.
(1 picture or pasted object on this page, not shown here)

Substance | IC50 [µM]
4-[4-(hydroxymethyl)phenyl]-3-(1,2-dicarba-closo-dodecaboranyl)furan-2(5H)-one [Compound 4c] | > 100
4-[4-(methylnitrooxy)phenyl]-3-(1,2-dicarba-closo-dodecaboranyl)furan-2(5 H)-one [Compound 5] | > 100

What follows are substances tested on B16, mouse solid melanoma (assay: CV (crystal violet) cell viability, B16). Conditions: 48 h.
Format: cell-based
Procedure: as §1, §2, §3, §4, §5, §6

Substance | IC50 [µM]
4-[4-(hydroxymethyl)phenyl]-3-(1,2-dicarba-closo-dodecaboranyl)furan-2(5H)-one [Compound 4c] | 30.8 ± 3.22
4-[4-(methylnitrooxy)phenyl]-3-(1,2-dicarba-closo-dodecaboranyl)furan-2(5 H)-one [Compound 5] | 11.5 ± 1.05

Same assay, conditions: IC50 macrophages / IC50 cancer

Substance | Selectivity index B16
4-[4-(hydroxymethyl)phenyl]-3-(1,2-dicarba-closo-dodecaboranyl)furan-2(5H)-one [Compound 4c] | 2.1
4-[4-(methylnitrooxy)phenyl]-3-(1,2-dicarba-closo-dodecaboranyl)furan-2(5 H)-one [Compound 5] | 3.2

These substances were tested on SW620, human colon carcinoma (assay: MTT cell viability, SW620). Conditions: 48 h.
Format: cell-based
Procedure: as §1
(§8) Reagents were obtained from Sigma (St. Louis, MO) unless indicated otherwise. […]
S ystems, Minneapolis, MN USA). […] After being detached b y tr ypsinization, cells were seeded in defined number as follows: 2.5 × 10^3 cells/well in 96-well plates for viability assessment and 2 × 10^4 cells/well in 24-well plates for flow cytometry. […]
Before treatment, non- adherent cells were removed. Compounds 4a- c, 5 and 6 were dissolved in DMSO and stored at −20 °C for a m onth. Working solutions were freshl y prepared in 10% FCS-RPMI-1640. Controls were treated with culture medium containing the equivalent […]
as §4, §5, §6

Substance | IC50 [µM]
4-[4-(hydroxymethyl)phenyl]-3-(1,2-dicarba-closo-dodecaboranyl)furan-2(5H)-one [Compound 4c] | 35.7 ± 0.85
4-[4-(methylnitrooxy)phenyl]-3-(1,2-dicarba-closo-dodecaboranyl)furan-2(5 H)-one [Compound 5] | 10.5 ± 0.14

What follows are substances tested on SW620, human colon carcinoma (assay: CV (crystal violet) cell viability, SW620). Conditions: 48 h.
Format: cell-based
Procedure: as §1, §8
S ystems, Minneapolis, MN USA). […] After being detached b y tr ypsinization, cells were seeded in defined number as follows: 2.5 × 10^3 cells/well in 96-well plates for viability assessment and 2 × 10^4 cells/well in 24-well plates for flow cytometry. Peritoneal resident […]
as §3, §4, §5, §6

Substance | IC50 [µM]
4-[4-(hydroxymethyl)phenyl]-3-(1,2-dicarba-closo-dodecaboranyl)furan-2(5H)-one [Compound 4c] | 44.4 ± 1.77
4-[4-(methylnitrooxy)phenyl]-3-(1,2-dicarba-closo-dodecaboranyl)furan-2(5 H)-one [Compound 5] | 10.8 ± 0.21

Same assay, conditions: IC50 macrophages / IC50 cancer

Substance | Selectivity index SW620
4-[4-(hydroxymethyl)phenyl]-3-(1,2-dicarba-closo-dodecaboranyl)furan-2(5H)-one [Compound 4c] | 1.5
4-[4-(methylnitrooxy)phenyl]-3-(1,2-dicarba-closo-dodecaboranyl)furan-2(5 H)-one [Compound 5] | 3.5

These substances were tested on CT26CL25, mouse colon carcinoma (assay: MTT cell viability, CT26CL25). Conditions: 48 h.
Format: cell-based
Procedure: as §1
as §2, with “cytometry.” for “cytometry. Peritoneal resident”
as §7, §4, §5, §6

Substance | IC50 [µM]
4-[4-(hydroxymethyl)phenyl]-3-(1,2-dicarba-closo-dodecaboranyl)furan-2(5H)-one [Compound 4c] | 28.4 ± 2.46
4-[4-(methylnitrooxy)phenyl]-3-(1,2-dicarba-closo-dodecaboranyl)furan-2(5 H)-one [Compound 5] | 31.4 ± 3.27
